Source: patent US3992379A, “4-Alkyldioxyalkylene-5-benzylpyrimidines” (Ludwig Heumann & Co. GmbH, priority 1973, dated 1976)
Values after ≈ are worked out from the molar mass of the structure shown.

Legend:
physchem = details: water
[1] = J. Med. Pharm. Chem. 5, p. 1118, Tab. 9; cited from earlier work
25 coli strains = assay: Anti-bacterial action test with discs impregnated with 25 μg of substance (arresting circle diameter); type: cell-based; details: mean (x) over 25 coli strains
Protocol: The test for anti-bacterial action […] was performed with discs which were each impregnated with 25 μg of the two substances A and B: […]

in vivo = details: rat, rats
[2] = Anti-bacterial action, general statement; details: in words; compared with conventional bactericide 5-nitro-8-hydroxycholine
Text: These physical properties are required in order to meet the fundamental needs for resorption required in oral adminstration.

[3] = Toxicity, general statement; details: in words; compared with conventional bactericide 5-nitro-8-hydroxycholine

In the case of COc1cc(Cc2cnc(N)nc2N)cc(OC)c1OC [2,4-diamino-5-(3',4',5'-trimethoxy-benzyl)-pyrimidine], the solubility (physchem) is given as 670 µg/mL (≈ 2.31 mM) and the bactericidal activity [1] is given as “such activity is present in the maximum degree”.

In the case of COc1ccc(Cc2cnc(N)nc2N)cc1OC [2,4-diamino-5-(3'-4'-dimethoxybenzyl)-pyrimidine], the bactericidal activity [1] is listed as “has bactericidal activity”.

O=[N+]([O-])c1ccc(O)c2ncccc12 [substance A, 5-nitro-8-hydrocholine] gave a zone of inhibition at 25 µg/disc (25 coli strains) of 20.7 mm and an LD50 (in vivo) of 830 mg/kg.

With COCCOc1c(OC)cc(Cc2cnc(N)nc2N)cc1OC [substance B, 2,4-diamino-5-(3',5'-dimethoxy-4'-methyldioxyethylene-benzyl)-pyrimidine] the anti-bacterial action [2] was “improved anti-bacterial action”, the solubility (physchem) was 8000 µg/mL (≈ 23.9 mM) and the zone of inhibition at 25 µg/disc (25 coli strains) was 28.5 mm. The degree of toxicity [3] was “substantially lower degree of toxicity”.
